Experimental data taken from patent US9029391B2 (priority 2011, dated 2015).
pIC50: −log10 of the molar value.

Test system: HIV
Assay: MT4 Assay (anti-HIV activity)
Type: cell-based
Conditions: Human immunodeficiency virus 1, 96 h, read-out: HIV MT4 Assay IC50, HTLV-1 transformed cell line MT-4, cell titer glo, 10 point dose response curve
In short: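 IC50 values were fitted to 10-point dose-response series (3-4-fold dilutions, range >1000-fold), normalized to no-compound control. CellTiter-Glo read-out was taken after 96 hours in HTLV-1-transformed MT-4 cells. Cytotoxicity was measured in parallel under identical conditions.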

In the case of `CC(C)Oc1ccc(-c2c(C(OC(C)(C)C)C(=O)O)n(C)c(=O)c3ccccc23)cc1` (stereo not drawn) [Example 45, 2-(tert-butoxy)-2-{2-methyl-1-oxo-4-[4-(propan-2-yloxy)phenyl]-1,2-dihydroisoquinolin-3-yl}acetic acid], the pIC50 was 4.30.
`Cc1c(-c2c(C(OC(C)(C)C)C(=O)O)n(C)c(=O)c3cc(OS(=O)(=O)N(C)C)ccc23)ccc2c1CCCO2` (stereo not drawn) [Example 123, 2-(tert-butoxy)-2-{7-[(dimethylsulfamoyl)oxy]-2-methyl-4-(5-methyl-3,4-dihydro-2H-1-benzopyran-6-yl)-1-oxo-1,2-dihydroisoquinolin-3-yl}acetic acid] gave a pIC50 of 5.91.
`Cc1ccc(-c2c(C(OC(C)(C)C)C(=O)O)n(C)c(=O)c3cc(CNS(=O)(=O)N(C)C)ccc23)cc1C` (stereo not drawn) [Example 188, 2-(tert-butoxy)-2-(4-(3,4-dimethylphenyl)-7-(((N,N-dimethylsulfamoyl)amino)methyl)-2-methyl-1-oxo-1,2-dihydroisoquinolin-3-yl)acetic acid] gave a pIC50 of 5.43.
In the case of `Cc1c(-c2c([C@H](OC(C)(C)C)C(=O)O)n(C)c(=O)c3cc(CN4CCOCC4)ccc23)cc(F)c2c1CCCO2` (atropisomer, axis not shown; (M)) [Example 189, (S)(M)-2-(tert-butoxy)-2-(4-(8-fluoro-5-methylchroman-6-yl)-2-methyl-7-(morpholinomethyl)-1-oxo-1,2-dihydroisoquinolin-3-yl)acetic acid], the pIC50 was 7.40.
With `Cc1c(-c2c(C(OC(C)(C)C)C(=O)O)n(C)c(=O)c3cc(OCc4cccc(F)c4)ccc23)ccc2c1CCCO2` (stereo not drawn) [Example 104, 2-(tert-butoxy)-2-{7-[(3-fluorophenyl)methoxy]-2-methyl-4-(5-methyl-3,4-dihydro-2H-1-benzopyran-6-yl)-1-oxo-1,2-dihydroisoquinolin-3-yl}acetic acid] the pIC50 was 7.22.
In the case of `COc1cccc(-c2c(C(OC(C)(C)C)C(=O)O)n(C)c(=O)c3ccccc23)c1` (stereo not drawn) [Example 15, 2-(tert-butoxy)-2-[4-(3-methoxyphenyl)-2-methyl-1-oxo-1,2-dihydroisoquinolin-3-yl]acetic acid], the pIC50 was 5.07.
`Cc1c(-c2c([C@H](OC(C)(C)C)C(=O)O)n(C)c(=O)c3cc(OCc4ccc(Cl)s4)ccc23)ccc2c1CCCO2` [Example 112, (2S)-2-(tert-butoxy)-2-{7-[(5-chlorothiophen-2-yl)methoxy]-2-methyl-4-(5-methyl-3,4-dihydro-2H-1-benzopyran-6-yl)-1-oxo-1,2-dihydroisoquinolin-3-yl}acetic acid] showed a pIC50 of 7.30.
`Cc1c(-c2c(C(OC(C)(C)C)C(=O)O)n(C)c(=O)c3cc(OCc4cccs4)ccc23)ccc2c1CCCO2` (stereo not drawn) [Example 142, 2-(tert-butoxy)-2-[2-methyl-4-(5-methyl-3,4-dihydro-2H-1-benzopyran-6-yl)-1-oxo-7-(thiophen-2-ylmethoxy)-1,2-dihydroisoquinolin-3-yl]acetic acid] gave a pIC50 of 7.52.
`Cc1ccc(-c2c(C(OC(C)(C)C)C(=O)O)n(C)c(=O)c3cc(CNCc4ccc5c(-c6ccc(C)c(C)c6)c(C(OC(C)(C)C)C(=O)O)n(C)c(=O)c5c4)ccc23)cc1C` (stereo not drawn) [Example 180, 2,2′-(iminobis{methanediyl[4-(3,4-dimethylphenyl)-2-methyl-1-oxo-1,2-dihydroisoquinoline-7,3-diyl]})bis{[(1,1-dimethylethyl)oxy]acetic acid}] showed a pIC50 of 4.91.
`Cc1c(-c2c(C(OC(C)(C)C)C(=O)O)n(C)c(=O)c3c(F)cccc23)cc(F)c2c1CCCO2` (stereo not drawn) [Example 90, 2-(tert-butoxy)-2-[8-fluoro-4-(8-fluoro-5-methyl-3,4-dihydro-2H-1-benzopyran-6-yl)-2-methyl-1-oxo-1,2-dihydroisoquinolin-3-yl]acetic acid] showed a pIC50 of 6.29.
In the case of `COc1ccc2c(-c3ccc4c(c3C)CCCO4)c(C(OC(C)(C)C)C(=O)O)n(C)c(=O)c2c1` (stereo not drawn) [Example 76, 2-(tert-butoxy)-2-[7-methoxy-2-methyl-4-(5-methyl-3,4-dihydro-2H-1-benzopyran-6-yl)-1-oxo-1,2-dihydroisoquinolin-3-yl]acetic acid], the pIC50 was 6.92.
`Cc1ccc(-c2c(C(OC(C)(C)C)C(=O)O)n(C)c(=O)c3cc(CC(C)C)ccc23)cc1C` (stereo not drawn) [Example 172, [(1,1-dimethylethyl)oxy][4-(3,4-dimethylphenyl)-2-methyl-7-(2-methylpropyl)-1-oxo-1,2-dihydro-3-isoquinolinyl]acetic acid] was tested, and the pIC50 was 6.57.
Molecule `Cc1c(-c2c(C(OC(C)(C)C)C(=O)O)n(C)c(=O)c3ccccc23)cc(F)c2c1CCCO2` (stereo not drawn) [Example 150, [(1,1-dimethylethyl)oxy][4-(8-fluoro-5-methyl-3,4-dihydro-2H-chromen-6-yl)-2-methyl-1-oxo-1,2-dihydro-3-isoquinolinyl]acetic acid] has a pIC50 of 6.80.
Molecule `Cc1c(-c2c(C(OC(C)(C)C)C(=O)O)n(C)c(=O)c3cc(OCc4ccc(F)cn4)ccc23)cc(F)c2c1CCCO2` (stereo not drawn) [Example 101, 2-(tert-butoxy)-2-[4-(8-fluoro-5-methyl-3,4-dihydro-2H-1-benzopyran-6-yl)-7-[(5-fluoropyridin-2-yl)methoxy]-2-methyl-1-oxo-1,2-dihydroisoquinolin-3-yl]acetic acid] has a pIC50 of 6.54.
Work on `Cc1c(-c2c(C(OC(C)(C)C)C(=O)O)n(C)c(=O)c3cc(F)ccc23)ccc2c1CCCO2` (stereo not drawn) [Example 75, 2-(tert-butoxy)-2-[7-fluoro-2-methyl-4-(5-methyl-3,4-dihydro-2H-1-benzopyran-6-yl)-1-oxo-1,2-dihydroisoquinolin-3-yl]acetic acid] yielded a pIC50 of 6.41.
Work on `Cn1c(C(OC(C)(C)C)C(=O)O)c(-c2ccc3ncsc3c2)c2ccccc2c1=O` (stereo not drawn) [Example 153, 2-(4-(benzo[d]thiazol-6-yl)-2-methyl-1-oxo-1,2-dihydroisoquinolin-3-yl)-2-(tert-butoxy)acetic acid] yielded a pIC50 of 5.41.
`COCc1ccc(-c2c(C(OC(C)(C)C)C(=O)O)n(C)c(=O)c3ccccc23)cc1` (stereo not drawn) [Example 49, 2-(tert-butoxy)-2-{4-[4-(methoxymethyl)phenyl]-2-methyl-1-oxo-1,2-dihydroisoquinolin-3-yl}acetic acid] showed a pIC50 of 4.81.
`Cc1c(-c2c(C(OC(C)(C)C)C(=O)O)n(C)c(=O)c3cc(OCCO)ccc23)ccc2c1CCCO2` (stereo not drawn) [Example 4, tert-Butoxy-[7-(2-hydroxy-ethoxy)-2-methyl-4-(5-methyl-chroman-6-yl)-1-oxo-1,2-dihydro-isoquinolin-3-yl]-acetic acid] showed a pIC50 of 5.43.
Work on `Cn1c(C(OC(C)(C)C)C(=O)O)c(-c2cccc(OC(F)(F)F)c2)c2ccccc2c1=O` (stereo not drawn) [Example 16, 2-(tert-butoxy)-2-{2-methyl-1-oxo-4-[3-(trifluoromethoxy)phenyl]-1,2-dihydroisoquinolin-3-yl}acetic acid] yielded a pIC50 of 4.68.
Work on `Cc1c(-c2c(C(OC(C)(C)C)C(=O)O)n(C)c(=O)c3c(F)cccc23)ccc2c1CCCO2` (stereo not drawn) [Example 83, 2-(tert-butoxy)-2-[8-fluoro-2-methyl-4-(5-methyl-3,4-dihydro-2H-1-benzopyran-6-yl)-1-oxo-1,2-dihydroisoquinolin-3-yl]acetic acid] yielded a pIC50 of 6.30.
`CCCOc1ccc(-c2c(C(OC(C)(C)C)C(=O)O)n(C)c(=O)c3ccccc23)cc1` (stereo not drawn) [Example 44, 2-(tert-butoxy)-2-[2-methyl-1-oxo-4-(4-propoxyphenyl)-1,2-dihydroisoquinolin-3-yl]acetic acid] was tested, and the pIC50 was 4.41.
